Experimental data as given in patent publication US10294229B2, “Heteroaryl substituted aminopyridine compounds” (BRISTOL-MYERS SQUIBB COMPANY, priority 2015, dated 2019).
Counter-ions that a name gives are not always drawn.

How the values were obtained:
IRAK4 = IRAK4 (Homo sapiens (Human), UniProt Q9NWZ3); test: IRAK4 Inhibition Assay; format: biochemical; settings: ATP 500 μM; IRAK4 0.6 nM
How it was run: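 Mobility-shift readout: phosphorylated and unphosphorylated fluorescent peptide (1.5 μM) resolved by electrophoresis after a 60 min room-temperature reaction stopped with EDTA. Reaction holds 0.6 nM IRAK4, 500 μM ATP and 1.6% DMSO in HEPES pH 7.2/MgCl2/Brij 35/DTT buffer; percent inhibition set against vehicle and no-enzyme controls.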

[1] = system: Human whole blood stimulated with a TLR2 agonist (lipoteichoic acid), IL-6 levels; test: IRAK4 Whole Blood Assay; format: cell-based; settings: Homo sapiens, lipoteichoic acid 10 μg/mL
How it was run: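 ACD-A-anticoagulated human whole blood was preincubated with compounds for 60 min at 37 °C under 5% CO2. It was then stimulated with 10 μg/mL lipoteichoic acid (final) in RPMI for 5 h. IL-6 in plasma supernatants was measured by flow cytometry bead assay.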

[2] = Caco-2 Permeability Assay; format: in vitro ADME; settings: human, Caco-2, test compound 3 μM
Description: Caco-2 Permeability Assay
Thirteen to 27 days prior to assay, Caco-2 cells were seeded onto collagen-coated polycarbonate filter membranes in 24-well transwell plates at a density of 1.45×10^5 cells/cm^2, approximately 4.8×10^4 cells per well. The cells were grown in a culture medium consisting of DMEM supplemented with 10% fetal bovine serum, 10 mM HEPES, 1% nonessential amino acids, 2 mM L-glutamine, 100 U/mL penicillin-G, and 100 μg/mL streptomycin. The culture medium was replaced every 3 days and the cells were maintained at 37° C. in a 95% relative humidity and 5% CO2 atmosphere. The cells were evaluated for tight junction formation just prior to assay. The test compound was solubilized to 10 mM in 100% DMSO and diluted to 3 μM in assay buffer. Permeability studies were initiated by adding 200 μL assay buffer plus/minus compound to the apical transwell compartment and 600 μL assay buffer plus/minus compound to the basolateral compartment of the 24-well transwell low-binding cluster plate. For apical-to-basolateral (A to B) permeability (absorptive direction), buffer containing compound was placed in the apical compartment (donor wells), while buffer alone was placed in the corresponding basolateral compartments (receiver wells). For basolateral-to-apical (B to A) permeability (secretive direction), buffer containing compound was placed in the basolateral compartment (donor wells), while buffer alone was placed in the corresponding apical compartments (receiver wells). Transwells were then incubated for 2 hours at 37° C. in a 95% relative humidity and 5% CO2 atmosphere with gentle agitation. Following incubation, 100 μL was removed from each apical and basolateral compartment and transferred to 96-well low binding plates that had been previously loaded with 100 μL/well of acetonitrile containing 250 nM propranolol, 250 nM diclofenac, and 500 nM tolbutamide as internal standards. The samples were subsequently analyzed by LC-MS/MS to determine concentrations of compound.

Chain of IRAK4 (Q9NWZ3 whole entry, species assumed): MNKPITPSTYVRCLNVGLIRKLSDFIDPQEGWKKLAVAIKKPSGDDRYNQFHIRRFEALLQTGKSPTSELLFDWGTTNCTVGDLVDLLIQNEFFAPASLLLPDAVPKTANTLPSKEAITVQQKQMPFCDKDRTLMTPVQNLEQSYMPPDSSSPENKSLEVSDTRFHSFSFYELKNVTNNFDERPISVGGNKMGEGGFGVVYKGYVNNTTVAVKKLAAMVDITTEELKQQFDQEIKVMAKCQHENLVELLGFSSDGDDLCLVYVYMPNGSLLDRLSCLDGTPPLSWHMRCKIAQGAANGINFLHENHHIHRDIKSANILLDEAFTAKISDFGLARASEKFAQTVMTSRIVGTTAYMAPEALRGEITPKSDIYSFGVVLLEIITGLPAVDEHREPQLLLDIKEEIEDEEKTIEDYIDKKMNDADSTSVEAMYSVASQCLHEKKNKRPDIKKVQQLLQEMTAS

Compound | IC50 (IRAK4) [nM] | EC50 [1] [nM] | Papp at 2 h, 3 µM [2] [×10⁻⁶ cm/s]
N#Cc1cnc2c(cnn2-c2cc(NC3CC3)c(-c3cn(CCO)nn3)cn2)c1 [Example 14, 1-(4-(cyclopropylamino)-5-(1-(2-hydroxyethyl)-1H-1,2,3-triazol-4-yl)pyridin-2-yl)-1H-pyrazolo[3,4-b]pyridine-5-carbonitrile] | 3 | 490 | 4.1
CC(C)Nc1cc(-n2ncc3cc(C#N)cnc32)ncc1-c1cn(CC2CC2)nn1 [Example 16, 1-(5-(1-(cyclopropylmethyl)-1H-1,2,3-triazol-4-yl)-4-(isopropylamino)pyridin-2-yl)-1H-pyrazolo[3,4-b]pyridine-5-carbonitrile] | 5 | 850 | 14
CC(C)Nc1cc(-n2ncc3cc(C#N)cnc32)ncc1-c1cn(C2CCN(C)C2=O)nn1 (stereo not drawn) [Example 21, 1-(4-(isopropylamino)-5-(1-(1-methyl-2-oxopyrrolidin-3-yl)-1H-1,2,3-triazol-4-yl)pyridin-2-yl)-1H-pyrazolo[3,4-b]pyridine-5-carbonitrile] | 4 | 320 | 4.2
CC(C)Nc1cc(-n2ncc3cc(C#N)c(N)nc32)ncc1-c1cn(CCCO)nn1 [Example 29, 6-amino-1-(5-(1-(3-hydroxypropyl)-1H-1,2,3-triazol-4-yl)-4-(isopropylamino)pyridin-2-yl)-1H-pyrazolo[3,4-b]pyridine-5-carbonitrile] | 4 | 380 | < 1.5
CCCn1cc(-c2cnc(-n3ncc4cc(C#N)c(N)nc43)cc2NC(C)C)nn1 [Example 33, 6-amino-1-(4-(isopropylamino)-5-(1-propyl-1H-1,2,3-triazol-4-yl)pyridin-2-yl)-1H-pyrazolo[3,4-b]pyridine-5-carbonitrile] | 3 | 3720 | 16.7
CCCn1cc(-c2cnc(-n3ncc4cc(C#N)c(N)nc43)cc2NC2CC2)nn1 [Example 35, 6-amino-1-(4-(cyclopropylamino)-5-(1-propyl-1H-1,2,3-triazol-4-yl)pyridin-2-yl)-1H-pyrazolo [3,4-b]pyridine-5-carbonitrile] | 3 | 460 | 23.7
CCn1cc(-c2cnc(-n3ncc4cc(C#N)cnc43)cc2NC(C)C)nn1 [Example 37, 1-(5-(1-ethyl-1H-1,2,3-triazol-4-yl)-4-(isopropylamino)pyridin-2-yl)-1H-pyrazolo[3,4-b]pyridine-5-carbonitrile] | 5 | 160 | 33.9
CC(C)Nc1cc(-n2ncc3cc(C#N)cnc32)ncc1-c1cn(CCC(F)(F)F)nn1 [Example 41, 1-(4-(isopropylamino)-5-(1-(3,3,3-trifluoropropyl)-1H-1,2,3-triazol-4-yl)pyridin-2-yl)-1H-pyrazolo[3,4-b]pyridine-5-carbonitrile] | 4 | 320 | 27.8
CC(C)Nc1cc(-n2ncc3cc(C#N)cnc32)ncc1-c1cn(CCCCF)nn1 [Example 48, 1-(5-(1-(4-fluorobutyl)-1H-1,2,3-triazol-4-yl)-4-(isopropylamino)pyridin-2-yl)-1H-pyrazolo[3,4-b]pyridine-5-carbonitrile] | 4 | 920 | 30
CCCn1cc(-c2cnc(-n3ncc4cc(C#N)cnc43)cc2NC2CCOCC2)nn1 [Example 49, 1-(5-(1-propyl-1H-1,2,3-triazol-4-yl)-4-((tetrahydro-2H-pyran-4-yl)amino)pyridin-2-yl)-1H-pyrazolo[3,4-b]pyridine-5-carbonitrile] | 4 | 580 | 28.8
CCCn1cc(-c2cnc(-n3ncc4cc(C#N)cnc43)cc2N[C@@H](C)CO)nn1 [Example 52, (S)-1-(4-((1-hydroxypropan-2-yl)amino)-5-(1-propyl-1H-1,2,3-triazol-4-yl)pyridin-2-yl)-1H-pyrazolo[3,4-b]pyridine-5-carbonitrile] | 3 | 430 | 3.4
CCCn1cc(-c2cnc(-n3ncc4cc(C#N)cnc43)cc2Nc2cnn(CC(F)F)c2)nn1 [Example 60, 1-(4-((1-(2,2-difluoroethyl)-1H-pyrazol-4-yl)amino)-5-(1-propyl-1H-1,2,3-triazol-4-yl)pyridin-2-yl)-1H-pyrazolo[3,4-b]pyridine-5-carbonitrile] | 2 | 250 | 11.9

Further molecules by falling IC50 (IRAK4), results first:

IC50 (IRAK4) [nM] | EC50 [1] [nM] | Papp at 2 h, 3 µM [2] [×10⁻⁶ cm/s] | Compound
11 | 1950 | 2.8 | CC(C)Nc1cc(-n2ncc3cc(C#N)cnc32)ncc1-c1cn(CCO)nn1 [Example 11, 1-(5-(1-(2-hydroxyethyl)-1H-1,2,3-triazol-4-yl)-4-(isopropylamino)pyridin-2-yl)-1H-pyrazolo[3,4-b]pyridine-5-carbonitrile]
9 | 1180 | 40.8 | CCCn1cc(-c2cnc(-n3ncc4cc(C#N)cnc43)cc2NCC)nn1 [Example 54, 1-(4-(ethylamino)-5-(1-propyl-1H-1,2,3-triazol-4-yl)pyridin-2-yl)-1H-pyrazolo[3,4-b]pyridine-5-carbonitrile]
4 | 310 | 23.4 | CC(C)Nc1cc(-n2ncc3cc(C#N)cnc32)ncc1-c1cn(CCN2CCOCC2)nn1 [Example 12, 1-(4-(isopropylamino)-5-(1-(2-morpholinoethyl)-1H-1,2,3-triazol-4-yl)pyridin-2-yl)-1H-pyrazolo[3,4-b]pyridine-5-carbonitrile]
4 | 160 | 22.5 | CCCn1cc(-c2cnc(-n3ncc4cc(C#N)cnc43)cc2NC(C)C)nn1 [Example 30, 1-(4-(isopropylamino)-5-(1-propyl-1H-1,2,3-triazol-4-yl)pyridin-2-yl)-1H-pyrazolo[3,4-b]pyridine-5-carbonitrile]
4 | 660 | 48.1 | CCCn1cc(-c2cnc(-n3ncc4cc(C#N)cnc43)cc2NC2CC2)nn1 [Example 34, 1-(4-(cyclopropylamino)-5-(1-propyl-1H-1,2,3-triazol-4-yl)pyridin-2-yl)-1H-pyrazolo[3,4-b]pyridine-5-carbonitrile]
4 | 140 | 32.1 | CCCn1cc(-c2cnc(-n3cnc4cnc(N)nc43)cc2NC(C)C)nn1 [Example 62, 9-(4-(isopropylamino)-5-(1-propyl-1H-1,2,3-triazol-4-yl)pyridin-2-yl)-9H-purin-2-amine]
3 | 400 | 5.5 | CC(C)CCn1cc(-c2cnc(-n3ncc4cc(C#N)cnc43)cc2NC(C)C)nn1 [Example 10, 1-(5-(1-isopentyl-1H-1,2,3-triazol-4-yl)-4-(isopropylamino)pyridin-2-yl)-1H-pyrazolo[3,4-b]pyridine-5-carbonitrile, TFA]
3 | 270 | 22.9 | N#Cc1cnc2c(cnn2-c2cc(NC3CC3)c(-c3cn(CCN4CCOCC4)nn3)cn2)c1 [Example 13, 1-(4-(cyclopropylamino)-5-(1-(2-morpholinoethyl)-1H-1,2,3-triazol-4-yl)pyridin-2-yl)-1H-pyrazolo[3,4-b]pyridine-5-carbonitrile]
3 | 180 | 7.2 | CC(C)Nc1cc(-n2ncc3cc(C#N)cnc32)ncc1-c1cn(CCc2ccccc2)nn1 [Example 56, 1-(4-(isopropylamino)-5-(1-phenethyl-1H-1,2,3-triazol-4-yl)pyridin-2-yl)-1H-pyrazolo [3,4-b]pyridine-5-carbonitrile]
2 | 800 | 4.9 | CC(C)Nc1cc(-n2ncc3cc(C#N)c(N)nc32)ncc1-c1cn(C2CCCCC2)nn1 [Example 25, 6-amino-1-(5-(1-cyclohexyl-1H-1,2,3-triazol-4-yl)-4-(isopropylamino)pyridin-2-yl)-1H-pyrazolo[3,4-b]pyridine-5-carbonitrile]
2 | 100 | 26.7 | CCCn1cc(-c2cnc(-n3cnc4cc(C#N)cnc43)cc2N[C@@H](C)CO)nn1 [Example 53, (S)-3-(4-((1-hydroxypropan-2-yl)amino)-5-(1-propyl-1H-1,2,3-triazol-4-yl)pyridin-2-yl)-3H-imidazo [4,5-b]pyridine-6-carbonitrile]
